# “Also recorded” adds a separate entry of the source. Like-named read-outs stand apart in the source and are kept apart here.
# Assays:
# [1] = test system: GFP-expressing M. tuberculosis H37Rv; parameters: method as in PMID 32505086; conditions: Middlebrook 7H9 liquid medium with OADC (contains albumin); 5 days; GFP signal; reported previously; cited from earlier work
# Solubility in PBS pH 7.4 = conditions: PBS pH 7.4, pH 7.4, aqueous buffer, kinetic from dmso stock
# plasma proteins = test: Plasma protein binding by rapid equilibrium dialysis; conditions: 10% plasma (diluted 1 to 10 in phosphate buffer), pH 7.2
# MabA [2] = target: T1, MabA (Mycobacterium tuberculosis, UniProt P9WGT3); test: MabA LC-MS/MS-based enzymatic assay (reduction of acetoacetyl-CoA into HBCoA); type: biochemical; conditions: for IC50: concentration inhibiting 50% of the transformation of acetoacetyl-CoA in HBCoA in the presence of NADPH, LC-MS/MS
# T1 sequence (P9WGT3 whole entry, looked up): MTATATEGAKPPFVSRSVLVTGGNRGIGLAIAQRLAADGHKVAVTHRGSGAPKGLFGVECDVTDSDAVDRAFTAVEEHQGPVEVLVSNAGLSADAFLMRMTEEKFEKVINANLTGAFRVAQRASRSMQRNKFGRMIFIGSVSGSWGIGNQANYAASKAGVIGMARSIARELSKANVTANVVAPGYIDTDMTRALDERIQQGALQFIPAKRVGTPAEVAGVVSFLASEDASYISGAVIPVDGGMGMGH
# [3] = test system: GFP-expressing M. tuberculosis H37Rv; test: microbe, parasite or virus in culture; type: cell-based; conditions: Mycobacterium tuberculosis
# LogD octanol/PBS pH 7.4 = conditions: octanol/PBS 1/1, pH 7.4
# MabA [4] = target: T1, MabA; type: binding
# H37Rv [5] = type: cell-based, M. tuberculosis
# [6] = test system: H37Rv carrying pUV15-pHGFP; type: cell-based, M. tuberculosis; conditions: pH 4.5
# M. tuberculosis H37Rv = type: cell-based
# [7] = Solubility in Sauton medium; type: physicochemical; conditions: aqueous buffer
# H37Rv [8] = type: cell-based, M. tuberculosis; remark: listed apart in the source
smiles,measurement,setting,value
"O=C(Nc1ccc(I)cc1C(=O)O)c1ccc(Cl)c(Cl)c1 [Compound 1, 2-[(3,4-dichlorobenzoyl)amino]-5-iodo-benzoic acid]",MIC90,[1],300 µM
same,solubility at 24 h,Solubility in PBS pH 7.4,> 200 µM
same,"fraction unbound at 4 h, 10 µM",plasma proteins,0.0014
same,IC50,MabA [2],38 ± 6 µM
same,MIC90,[3],300 µM
same,MIC90,[3]; 168 h,100 µM
same,logD at 2 h,LogD octanol/PBS pH 7.4,3.4
"O=C(Nc1ccc(Br)cc1C(=O)O)c1ccc(Cl)c(Cl)c1 [Compound 2, 5-bromo-2-[(3,4-dichlorobenzoyl)amino]benzoic Acid]",MIC90,[1],300 µM
same,solubility at 24 h,Solubility in PBS pH 7.4,181 µM
same,IC50,MabA [2],45 µM
same,MIC90,[3]; 168 h,100 µM
same,logD at 2 h,LogD octanol/PBS pH 7.4,3
"CN(C(=O)c1ccc(Cl)c(Cl)c1)c1ccc(I)cc1C(=O)O [Compound 3, 2-[(3,4-dichlorobenzoyl)-methyl-amino]-5-iodo-benzoic Acid]",IC50,MabA [2],> 200 µM
"O=C(O)c1cc(I)ccc1NS(=O)(=O)c1ccc(Cl)c(Cl)c1 [Compound 4, 2-[(3,4-dichlorophenyl)sulfonylamino]-5-iodo-benzoic Acid]",IC50,MabA [2],40 µM
"O=C(O)c1cc(Br)ccc1C(=O)Nc1ccc(Cl)c(Cl)c1 [Compound 5, 5-bromo-2-[(3,4-dichlorophenyl)carbamoyl]benzoic Acid]",IC50,MabA [2],268 µM
"O=C(O)c1cc(Br)ccc1NC(=S)c1ccc(Cl)c(Cl)c1 [Compound 6, 5-bromo-2-[(3,4-dichlorobenzenecarbothioyl)amino]benzoic Acid]",IC50,MabA [2],39 µM
"O=C(O)c1cc(Br)ccc1-c1nc(-c2ccc(Cl)c(Cl)c2)no1 [Compound 7, 5-bromo-2-[3-(3,4-dichlorophenyl)-1,2,4-oxadiazol-5-yl]benzoic Acid]",IC50,MabA [2],102 µM
"O=C(Nc1ccc(I)cc1CO)c1ccc(Cl)c(Cl)c1 [Compound 8, 3,4-dichloro-N-[2-(hydroxymethyl)-4-iodo-phenyl]benzamide]",IC50,MabA [2],> 333 µM
"NC(=O)c1cc(I)ccc1NC(=O)c1ccc(Cl)c(Cl)c1 [Compound 9, N-(2-carbamoyl-4-iodo-phenyl)-3,4-dichloro-benzamide]",IC50,MabA [2],> 500 µM
"N#Cc1cc(I)ccc1NC(=O)c1ccc(Cl)c(Cl)c1 [Compound 10, 3,4-dichloro-N-(2-cyano-4-iodo-phenyl)benzamide]",IC50,MabA [2],> 1000 µM
"O=C(Nc1ccc(I)cc1-c1nnn[nH]1)c1ccc(Cl)c(Cl)c1 [Compound 11, 3,4-dichloro-N-[4-iodo-2-(1H-tetrazol-5-yl)phenyl]benzamide]",IC50,MabA [2],24 µM
"O=C(Nc1ccc(I)cc1C(=O)NS(=O)(=O)C(F)(F)F)c1ccc(Cl)c(Cl)c1 [Compound 12, 3,4-dichloro-N-[4-iodo-2-(trifluoromethylsulfonylcarbamoyl)phenyl]benzamide]",19F- and 1H-NMR signal in the presence of MabA,MabA [4],confirmed the direct binding; also recorded: total disappearance of the signal
same,solubility at 24 h,Solubility in PBS pH 7.4,180 µM
same,"fraction unbound at 4 h, 10 µM",plasma proteins,0.0002
same,IC50,MabA [2],35 µM
same,MIC90,[3]; 168 h,300 µM
same,logD at 2 h,LogD octanol/PBS pH 7.4,4.1
"CS(=O)(=O)NC(=O)c1cc(I)ccc1NC(=O)c1ccc(Cl)c(Cl)c1 [Compound 13, 3,4-dichloro-N-[4-iodo-2-(methylsulfonylcarbamoyl)phenyl]benzamide]",IC50,MabA [2],28 µM
"O=C(Nc1cc(Br)ccc1C(=O)O)c1ccc(Cl)c(Cl)c1 [Compound 14, 4-bromo-2-[(3,4-dichlorobenzoyl)amino]benzoic Acid]",IC50,MabA [2],34 µM
"O=C(Nc1ccccc1C(=O)O)c1ccc(Cl)c(Cl)c1 [Compound 15, 2-[(3,4-dichlorobenzoyl)amino]benzoic Acid]",IC50,MabA [2],> 1000 µM
"O=C(Nc1ccc(C#CC2CC2)cc1C(=O)O)c1ccc(Cl)c(Cl)c1 [Compound 16, 5-(2-cyclopropylethynyl)-2-[(3,4-dichlorobenzoyl)amino]benzoic Acid]",transcriptional response,H37Rv [5],"downregulation of genes implicated in DNA replication, transcription, translation and growth"
same,solubility at 24 h,Solubility in PBS pH 7.4,> 200 µM
same,"fraction unbound at 4 h, 10 µM",plasma proteins,0.0006
same,effect on intrabacterial pH,[6],dose-dependent decrease in the intrabacterial pH
same,effect on mycolic acids synthesis (TLC),M. tuberculosis H37Rv,no specific inhibition of mycolic acids
same,IC50,MabA [2],60 µM
same,solubility,[7],> 300 µM
same,effect of pH on potency,H37Rv [8],decreasing pH improved the potency
same,MIC90,[3]; 168 h,100 µM
"C#Cc1ccc(C(=O)O)c(NC(=O)c2ccc(Cl)c(Cl)c2)c1 [Compound 17, 2-[(3,4-dichlorobenzoyl)amino]-4-ethynyl-benzoic Acid]",fold reduction in potency,MabA [2],2 fold
same,IC50,MabA [2],77 µM
"O=C(Nc1cc(-n2cccn2)ccc1C(=O)O)c1ccc(Cl)c(Cl)c1 [Compound 18, 2-[(3,4-dichlorobenzoyl)amino]-4-pyrazol-1-yl-benzoic Acid]",solubility at 24 h,Solubility in PBS pH 7.4,149 µM
same,"fraction unbound at 4 h, 10 µM",plasma proteins,< 0.0001
same,effect on mycolic acids synthesis (TLC),M. tuberculosis H37Rv,no specific inhibition of mycolic acids
same,improvement of the activity by a factor,MabA [2],1.6
same,IC50,MabA [2],23 µM
same,solubility,[7],> 300 µM
same,MIC90,[3]; 168 h,300 µM
same,logD at 2 h,LogD octanol/PBS pH 7.4,2.54
"O=C(Nc1cc2ccccc2cc1C(=O)O)c1ccc(Cl)c(Cl)c1 [Compound 19, 3-[(3,4-dichlorobenzoyl)amino]naphthalene-2-carboxylic Acid]",IC50,MabA [2],33 µM
"O=C(Nc1nc2ccccc2cc1C(=O)O)c1ccc(Cl)c(Cl)c1 [Compound 20, 2-[(3,4-dichlorobenzoyl)amino]quinoline-3-carboxylic Acid]",fold reduction in potency,MabA [2],2 fold
same,IC50,MabA [2],76 µM
"CCc1cc(C(N)=S)ccn1 [ethionamide, reference compound]",MIC,[3]; 168 h,2 µg/mL
"NNC(=O)c1ccncc1 [isoniazid, reference compound]",effect on mycolic acids synthesis (TLC),M. tuberculosis H37Rv,decrease in mycolic acids synthesis
same,MIC,[3]; 168 h,0.125 µg/mL
"CO[C@H]1/C=C/O[C@@]2(C)Oc3c(C)c(O)c4c(O)c(c(/C=N/N5CCN(C)CC5)c(O)c4c3C2=O)NC(=O)/C(C)=C\C=C\[C@H](C)[C@H](O)[C@@H](C)[C@@H](O)[C@@H](C)[C@H](OC(C)=O)[C@@H]1C [rifampicine, reference compound]",MIC,[3]; 168 h,0.004 µg/mL
